Measurements from article PMC4829596 (Frontiers in Microbiology, 2016).
≈ marks a conversion by molar mass, not a printed value. Like-named read-outs stand apart in the source and are kept apart here.

Key:
Caco2 and HepG2 cells = format: cell-based; conditions: at the determined MIC concentrations; range over compounds and cell lines
Method: (§1) Cytotoxicity of the fungal extract and the identified compounds was determined measuring lactate dehydrogenase release using human intestinal epithelial (Caco2) and human hepatocytic (HepG2) cells. […] Cells were seeded into 96-well plates (5 × 10^4 cells per well) and incubated until a confluent cell layer had developed. After discarding of the media cells were incubated with 50 μl of media and 50 μl of fungal extract or compound (final concentration: PAA 2 × 10^6 μg/l, 4FP 2 × 10^6 μg/l, ICA 2 × 10^6 μg/l, IAA 2 × 10^5 μg/l, PLA 2 × 10^6 μg/l, cPM 2 × 10^6μg/l and cFP 2 × 10^6 μg/l) for 24 h at 37°C. […] LDH release was measured according to the manufacturer’s protocol (Sigma–Aldrich, USA).

Caco2 cells = test: XTT assay, metabolic active cells; format: cell-based, human; conditions: XTT
Method: (§2) In parallel the % of metabolic cells was measured using the XTT [2,3-Bis-(2-methoxy-4-nitro-5-sulfophenyl)-2H-tetra zolium-5-carboxanilide] assay (Thermo Scientific). Briefly, after treatment with the fungal extract or the different compounds cells were incubated with XTT and phenanzine methosulfate (Thermo Scientific) for 2 h. Absorbance was measured at 450 nm and % of metabolic active cells was calculated versus the control sample (media). As controls we incubated the cells without fungal cultures or compound, and with VPA alone.

HepG2 cells = test: XTT assay, metabolic active cells; format: cell-based, human
Method: as §2

S. aureus = test: Determination of MIC; format: cell-based, Staphylococcus aureus; conditions: for MIC: Staphylococcus aureus; for Inhibitory concentration: lowest concentration at which the inhibitory effect was detectable
Method: (§3) Minimal inhibitory concentrations (MICs) of purified compounds and commercially available standards were assessed against S. aureus, C. albicans, P. aeruginosa, K. pneumoniae, E. coli, ESBL K. pneumoniae, ESBL E. coli and the two MRSA strains (B337919 and B335466). Stock solutions of 5 × 10^6 μg/l of p-hydroxybenzaldehyde, and phenyllactic acid were prepared using water. Stock solutions of 1 × 10^8 μg/l indole-3-carboxylic acid, PAA and indole-3-acetic acid were prepared using methanol and diluted with water (working solution of 5 × 10^6 μg/l). Stocks of 1 × 10^6 μg/l of cFP and cPM were dissolved in water. […] Methanol and water were used as control.

C. albicans = test: Determination of MIC; format: cell-based, Candida albicans; conditions: for MIC: Candida albicans; for Inhibitory concentration: lowest concentration at which the inhibitory effect was detectable
Method: as §3

[1] = system: MRSA Staphylococcus (S.) aureus B335466; test: Determination of MIC; format: cell-based; conditions: for Inhibitory concentration: lowest concentration at which the inhibitory effect was detectable
Method: as §3

[2] = system: MRSA Staphylococcus (S.) aureus B337919; test: Determination of MIC; format: cell-based; conditions: for Inhibitory concentration: lowest concentration at which the inhibitory effect was detectable
Method: as §3

ESBL E. coli = test: Determination of MIC; format: cell-based, Escherichia coli; conditions: for MIC: Escherichia coli; for Inhibitory concentration: lowest concentration at which the inhibitory effect was detectable
Method: as §3

E. coli = test: Determination of MIC; format: cell-based, Escherichia coli; conditions: for MIC: Escherichia coli; for Inhibitory concentration: lowest concentration at which the inhibitory effect was detectable
Method: as §3

K. pneumoniae = test: Determination of MIC; format: cell-based, Klebsiella pneumoniae; conditions: for MIC: Klebsiella pneumoniae; for Inhibitory concentration: lowest concentration at which the inhibitory effect was detectable
Method: as §3

ESBL K. pneumoniae = test: Determination of MIC; format: cell-based, Klebsiella pneumoniae; conditions: for MIC: Klebsiella pneumoniae; for Inhibitory concentration: lowest concentration at which the inhibitory effect was detectable
Method: as §3

[3] = system: human intestinal epithelial (Caco2) cells; test: Cytotoxicity assay, lactate dehydrogenase release; format: cell-based; conditions: 24 h, LDH
Method: as §1

[4] = system: human hepatocytic (HepG2) cells; test: Cytotoxicity assay, lactate dehydrogenase release; format: cell-based; conditions: 24 h, LDH
Method: as §1

P. aeruginosa = test: Determination of MIC; format: cell-based, Pseudomonas aeruginosa; conditions: for Inhibitory concentration: lowest concentration at which the inhibitory effect was detectable
Method: as §3

all tested organisms = test: Determination of MIC, statements over all tested organisms; format: cell-based; conditions: against the tested microorganisms
Method: as §3

[5] = system: Bacillus subtilis, S. aureus and Micrococcus luteus; design: method as in Jayatilake et al., 1996; Thomas et al., 2010; conditions: ref Jayatilake et al., 1996; Thomas et al., 2010; cited from earlier work
MRSA strain B337919 = test: Ampicillin MIC alone and in combination; format: cell-based; conditions: Staphylococcus aureus
Method: (§4) Furthermore we studied the ability of PAA, cPM and cFP to increase antimicrobial activity of ampicillin against both ESBL and MRSA strains. The combination of cPM (100 mg/l) with ampicillin decreased the MIC value from 100 to 10 mg/l against the MRSA strain B335466 (Figure 5C).

MRSA strain B335466 = test: Ampicillin MIC alone and in combination; format: cell-based; conditions: Staphylococcus aureus
Method: as §4

[6] = system: ESBL K. pneumoniae strain; test: Ampicillin in combination; format: cell-based, Klebsiella pneumoniae; conditions: ampicillin combined with PAA, cPM or cFP
Method: as §4

ESBL E. coli strain = test: Ampicillin in combination; format: cell-based, Escherichia coli; conditions: ampicillin combined with PAA, cPM or cFP
Method: as §4

higher fungi = system: higher fungi; design: method as in Strom et al., 2002; conditions: ref Strom et al., 2002; cited from earlier work

Compound	dead cells (Caco2 and HepG2 cells)	% of metabolic active Caco2 cells (Caco2 cells; compound 2mg/ml)	% of metabolic active HepG2 cells (HepG2 cells; compound 2mg/ml)	% of living Caco2 cells ([3]; compound 2mg/ml)	% of living HepG2 cells ([4]; compound 2mg/ml)	Inhibitory concentration (P. aeruginosa)	antimicrobial activity [5]	Inhibitory concentration (S. aureus; S. aureus)	Inhibitory concentration (C. albicans; C. albicans)	Inhibitory concentration ([1]; MRSA 335)	Inhibitory concentration ([2]; MRSA 337)	Inhibitory concentration (ESBL E. coli; ESBL E. coli)	Inhibitory concentration (E. coli; E. coli)	Inhibitory concentration (K. pneumoniae; K. pneumoniae)	Inhibitory concentration (ESBL K. pneumoniae; ESBL K. pneumoniae)	further results
O=C(O)Cc1ccccc1 [PAA, phenylacetic acid]	3.99–8.61%	113.54%	122.9%	6.53%	6.99%	–	–	–	–	–	–	–	–	–	–	MIC (S. aureus): 2000 µg/mL (≈ 14.7 mM); MIC (C. albicans): 2500 µg/mL (≈ 18.4 mM); MIC [1]: 2000 µg/mL (≈ 14.7 mM); MIC [2]: 2000 µg/mL (≈ 14.7 mM); MIC (ESBL E. coli): 2000 µg/mL (≈ 14.7 mM); MIC (E. coli): 2000 µg/mL (≈ 14.7 mM); MIC (K. pneumoniae): 2500 µg/mL (≈ 18.4 mM); MIC (ESBL K. pneumoniae): 2500 µg/mL (≈ 18.4 mM)
CSCCC1NC(=O)C2CCCN2C1=O [cPM, cyclo-(L-proline-L-methionine)]	3.99–8.61%	99.18%	107.47%	4.77%	3.99%	5 g/L	no antimicrobial activity	2.5 g/L	5 g/L	2.5 g/L	2.5 g/L	5 g/L	5 g/L	5 g/L	5 g/L	growth inhibitory activity (all tested organisms): 2 g/L
O=C(O)Cc1c[nH]c2ccccc12 [IAA, indole-3-acetic acid]	–	–	–	–	–	–	–	–	–	–	–	–	–	–	–	MIC (P. aeruginosa; Pseudomonas aeruginosa): 2000 µg/mL (≈ 11.4 mM); % of metabolic active Caco2 cells (Caco2 cells; compound 0.2mg/ml): 103.64%; % of metabolic active HepG2 cells (HepG2 cells; compound 0.2mg/ml): 108.28%; MIC (S. aureus; S. aureus, read-out: MIC): 400 µg/mL (≈ 2.28 mM); MIC (C. albicans; C. albicans, read-out: MIC): 400 µg/mL (≈ 2.28 mM); MIC ([1]; MRSA 335): 400 µg/mL (≈ 2.28 mM); MIC ([1]; MRSA strain B335466, read-out: MIC): 400 µg/mL (≈ 2.28 mM); MIC ([2]; MRSA 337): 200 µg/mL (≈ 1.14 mM); MIC ([2]; MRSA strain B337919, read-out: MIC): 200 µg/mL (≈ 1.14 mM); MIC (ESBL E. coli; ESBL E. coli, read-out: MIC): 1750 µg/mL (≈ 9.99 mM); MIC (E. coli; E. coli, read-out: MIC): 1750 µg/mL (≈ 9.99 mM); MIC (K. pneumoniae; K. pneumoniae, read-out: MIC): 400 µg/mL (≈ 2.28 mM); MIC (ESBL K. pneumoniae; ESBL K. pneumoniae, read-out: MIC): 2000 µg/mL (≈ 11.4 mM); % of living Caco2 cells ([3]; compound 0.2mg/ml): 8.61%; % of living HepG2 cells ([4]; compound 0.2mg/ml): 7.27 ± 1.77%
CC1(C)S[C@@H]2[C@H](NC(=O)[C@H](N)c3ccccc3)C(=O)N2[C@H]1C(=O)O [ampicillin]	–	–	–	–	–	–	–	–	–	–	–	–	–	–	–	MIC (MRSA strain B337919; ampicillin alone): 100 µg/mL; MIC (MRSA strain B337919; combined with cPM (2 g/l)): 50 µg/mL; MIC (MRSA strain B335466; ampicillin alone): 100 µg/mL; MIC (MRSA strain B335466; combined with PAA (1 g/l)): 50 µg/mL; MIC (MRSA strain B335466; combined with cPM (100 mg/l)): 10 µg/mL; synergistic or additive effect [6]: No synergistic or additive effect; synergistic or additive effect (ESBL E. coli strain): No synergistic or additive effect
O=C1NC(Cc2ccccc2)C(=O)N2CCCC12 [cFP, cyclo-(L-phenylalanine-L-proline)]	3.99–8.61%	106.66%	116.63%	4.28%	5.11%	5 g/L	no antimicrobial activity	2 g/L	2.5 g/L	2 g/L	2 g/L	5 g/L	5 g/L	3 g/L	3 g/L	MIC (higher fungi): 20000 µg/mL (≈ 81.9 mM)
